Laboratory results taken from patent US11389456B2, “Compounds and methods for treating oxalate-related diseases” (OxaluRx, Inc., priority 2018, dated 2022).
Values after ≈ are worked out from the molar mass of the structure shown. Like-named read-outs stand apart in the source and are kept apart here.

How the values were obtained:
[1] = molecular target: recombinant full-length human hydroxyacid oxidase 1 (HAO1), the equivalent of hGOX (Homo sapiens (Human), UniProt Q9UJM8); assay: In-vitro human glycolate oxidase (hGOX) assay (Amplex red/HRP fluorescence); format: biochemical
Protocol: Biological Activity Assay: In-Vitro Human Glycolate Oxidase (hGOX) Assay
The in-vitro glycolate oxidase assay was performed using recombinant full-length human hydroxyacid oxidase 1 (HAO1), the equivalent of hGOX. […] Purified HAO1 was dissolved in assay buffer consisting of 10 mM NaCl, 110 mM KCl, 2 mM MgCl2, 50 mM HEPES (pH 7.4) and 0.01% Triton™ X-100.

[2] = Solubility in phosphate buffered saline (PBS), pH 7.4; format: physicochemical; details: phosphate buffer (PBS), aqueous buffer, kinetic from dmso stock; phosphate buffered saline pH 7.4, 1% DMSO, 1 hour shaking at room temperature
Protocol: (§1) For testing compound solubility in phosphate buffered saline (PBS), compound stock solutions were prepared at 10 mM in 100% DMSO. For testing in aqueous solution, the phosphate buffer was replaced with deionized, distilled water. Eleven grams Na2HPO4 (FW: 141.96 g/mol) and 3.5 g NaH2PO4.2H2O (FW: 156.03 g/mol) was added to 1 L Milli-Q water and adjusted to a pH to 7.4 with phosphoric acid or sodium hydroxide. For incubation, media were preheated to 37° C. Eight μL aliquots of reference and test compound stock solutions (10 mM) were added into 792 μL of 100 mM phosphate buffer (pH 7.4). The final DMSO concentration was 1%. Sample tubes were shaken for 1 hour at 1000 rpm at room temperature.
(§2) The calibration curve was prepared with 300-μM spiking solution (SS) in MeOH:acetonitrile (4:1). Six μL of 10 mM compound was added in 194 μL MeOH/acetonitrile (4:1). Samples were centrifuged for 10 minutes at 12,000 rpm to precipitate undissolved particles. Supernatants were transferred to a new tube or plate and dilute 10-fold and 100-fold with 100 mM buffer. Samples were prepared for LC-MS/MS analysis by adding 5 μL each sample (undiluted, 10-fold diluted, and 100-fold diluted) and 5 μL of standard curve samples to 95 μL of acetonitrile (containing internal standard).

[3] = Solubility in aqueous solution (deionized, distilled water); format: physicochemical; details: kinetic from dmso stock, 1% DMSO, read-out: Aqueous Solubility H2O
Protocol: as §1, §2

[4] = Metabolic stability in human liver microsomal preparation; format: in vitro ADME; details: pH 7.4, human liver microsomes, NADPH, 37° C.; for half-life at 1 μM: 0-45 min, read-out: Metabolic Stability t1/2
Protocol: For evaluating the metabolic stability in human liver microsomal preparation, three buffers were prepared. Buffer A had 1.0 L of 0.1 M monobasic potassium phosphate buffer containing 1.0 mM EDTA. Buffer B had 1.0 L of 0.1 M dibasic potassium phosphate buffer containing 1.0 mM EDTA. Buffer C had 0.1 M potassium phosphate buffer, 1.0 mM EDTA, adjusted to a pH 7.4 via titrating 700 mL buffer B with buffer A. Reference compound (ketanserin) and test compounds spiking solutions (500 μM) were prepared by adding 10 μL of 10 mM DMSO stock compound solution into 190 μL acetonitrile. A volume of 1.5 μL 500 μM spiking solution and 18.75 μL 20 mg/mL human liver microsomes were added into 479.75 μL of Buffer C on ice. A stock solution of 6 mM NADPH was prepared by dissolving NADPH into Buffer C.
Wells on an assay plate were iced and filled with 30 μL 1.5-μM spiking solution containing 0.75 mg/mL microsomes solution and designated for different timepoints (0-, 5-, 15-, 30-, 45-min). For the 0-min timepoint, 135 μL acetonitrile containing internal standard were added followed by 15 μL of NADPH stock solution (6 mM). All other plates were preincubated at 37° C. for 5 minutes and 15 μL NADPH stock solution (6 mM) were added to the plates to start the reaction. At 5-min, 15-min, 30-min, and 45-min, 135 μL acetonitrile containing internal standard were added to the wells of corresponding plates, respectively, to stop the reaction. After quenching, the plates were shaken on the vibrator (IKA, MTS 2/4) for 10 min at 600 rpm and then centrifuged at 5594×g for 15 minutes (Thermo Multifuge×3R). Fifty μL supernatant from each well were transported into a 96-well sample plate containing 50 μL of ultra-pure water (Millipore, ZMQS50F01) for LC/MS analysis.

[5] = Stability in human plasma; format: in vitro ADME; details: read-out: Plasma Stability T1/2
Protocol: Stability in Human Plasma.
Stock compounds were prepared for testing the stability in human plasma. First, 0.05 M sodium phosphate and 0.07 M NaCl buffer, pH 7.4, were pre-heated. In deionized water, 14.505 g/L Na2HPO 12H2O, 1.483 g/L NaH2PO4.2H2O and 4.095 g/L NaCl were dissolved. The basic solution was titrated with the phosphoric acid to pH 7.40. Frozen plasma was quickly thawed at 37° C. The plasma was centrifuged at 3,000 rpm for 8 minutes to remove clots, then pipetted and pooled as the plasma stock for the experiment. Only plasma within the range of pH 7.4 to pH 8 was used. If higher than pH 8, the plasma was discarded. The initial pH of the plasma was not adjusted to pH 7.4 with acid or by bubbling with carbon dioxide. By using a 5% carbon dioxide incubator and PBS buffer, a pH of 7.4 will be reached after the 4-hour equilibrium dialysis time. Plasma was iced until use.
Spiking solution A with 0.5 mM testing compounds was prepared by adding 10 μL of 10 mM test compounds stock solution to 190 μL DMSO. Spiking solution B with 0.02 mM testing compound was prepared by adding 40 μL of spiking solution A to 960 μL of […] sodium phosphate buffer with 0.5% BSA. The plasma and spiking solution B were prewarmed at 37° C. for 5 minutes. Ten μL of pre-warmed spiking solution B was added into the wells designated for all the time points (5, 15, 30, 45, 60 minutes). For the 0-minute timepoint, 400 μL acetonitrile containing internal standard were added to the wells of 0-minute plate and then 90 μL plasma were added. For the other timepoints, 90 μL of pre-warmed plasma were added into the wells (0, 5, 15, 30, 45, 60 minutes) and the timing was started. At 5, 15, 30, 45, 60 minutes, 400 μL acetonitrile containing internal standard were added to the wells of corresponding plates, respectively, to stop the reaction. After quenching, the plates were shaken on a vibrator (IKA, MTS 2/4) for 10 minutes at 600 rpm and then centrifuged at 5594×g for 15 minutes (Thermo Multifuge×3R). Fifty μL of supernatant was transferred from each well into a 96-well sample plate containing 50 μL ultra-pure water (Millipore, ZMQS50F01) for LC/MS analysis.

[6] = Protein binding (plasma equilibrium dialysis); format: in vitro ADME; details: 5 hours at 37° C.; for fraction unbound at 5 h, 1 μM: read-out: Protein Binding Fraction Bound (converted)
Protocol: For testing protein binding of stock compounds solubilized in DMSO, spiking solutions of test and reference compounds were prepared. Solution A (0.5 mM) was prepared by adding 10 μL of 10 mM stock solution into 190 μL of DMSO. Solution B (0.02 mM) was prepared by adding 8 μL of Solution A into 192 μL of 0.05 M sodium phosphate buffer. The final DMSO concentration in Solution B was 4%.
To prepare test and reference compounds in plasma, a 96-well plate with 380 μL aliquots of plasma in the wells designed for plasma and buffer, respectively. Twenty μL of Solution B (0.02 mM of test and reference compounds) were spiked into the pre-loaded plasma in the 96-well plate. The final test concentration is 1 μM containing 0.2% DMSO.
For dialysis sample loading a plasma again buffer system was prepared by applying aliquots of 100 μL of blank dialysis buffer to the receiver side of dialysis chambers and then applying aliquots of 100 μL of the plasma spiked with test and reference compounds to the donor side of the dialysis chamber. A 25-μL aliquot of the plasma spiked with test and reference compounds was added into a 96-well sample preparation plate as T″0″ plasma samples. Aliquots were mixed with the same volume of blank buffer (50:50, volume:volume). Samples were quenched with 200 μL of acetonitrile containing internal standard. The dialysis block was covered and a shaken at 60 rpm for 5 hours at 37° C.
After a 5-hour incubation, dialyzed samples were prepared from 25-μL aliquots from both the donor and receiver sides of the dialysis apparatus into new sample preparation plates. The aliquots were mixed with same volume of opposite matrixes. The samples were quenched with 200 μL acetonitrile containing internal standard. All 0-hour and 5-hour samples were vortexed at 600 rpm for 10 min followed by centrifugation at 5594×g for 15 minutes (Thermo Multifuge×3R). Fifty μL of the supernatants were transferred to anew 96-well plate and mixed with 50 μL Milli-Q water. The sample plate was covered and frozen at −20° C. until LC/MS/MS analysis.

[7] = 12.5 nM HAO1, 85 μM glycolate, 2.5% DMSO, read-out: IC50

Sequence of recombinant full-length human hydroxyacid oxidase 1 (HAO1), the equivalent of hGOX (Q9UJM8 whole entry): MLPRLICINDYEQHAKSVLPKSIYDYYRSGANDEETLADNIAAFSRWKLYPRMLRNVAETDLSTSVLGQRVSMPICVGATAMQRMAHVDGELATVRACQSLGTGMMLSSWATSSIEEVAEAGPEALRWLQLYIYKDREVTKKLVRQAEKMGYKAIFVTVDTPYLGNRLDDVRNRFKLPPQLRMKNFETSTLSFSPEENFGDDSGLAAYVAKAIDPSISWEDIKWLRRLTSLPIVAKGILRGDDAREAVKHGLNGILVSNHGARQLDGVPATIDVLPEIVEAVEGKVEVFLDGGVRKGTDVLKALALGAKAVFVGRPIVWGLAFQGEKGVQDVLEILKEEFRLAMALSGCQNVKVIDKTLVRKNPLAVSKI

SMILES	IC50 [1] [nM]	solubility at 1 h [2] [µM]	solubility at 1 h [3] [µM]	CLint scaled at 1 μM [4] [mL/min/kg]	half-life at 1 μM [4] [h]	half-life at 2 μM [5] [h]	recovery at 5 h, 1 μM [6] [%]	fraction unbound at 5 h, 1 μM [6]	IC50 [1, 7] [nM]
COc1cc(-c2ccc(Oc3[nH]nnc3C(=O)O)cc2)ccc1F [Example I-271, 5-((4′-Fluoro-3′-methoxy-[1,1′-biphenyl]-4-yl)oxy)-1H-1,2,3-triazole-4-carboxylic acid]	7	110 (≈ 36.2 µg/mL)	90.1 (≈ 29.7 µg/mL)	3.49	8.31	2.82	110	0.01	
Cc1ccc(-c2ccc(Sc3[nH]nnc3C(=O)O)cc2)cc1 [Example I-129, 5-((4′-Methyl-[1,1′-biphenyl]-4-yl)thio)-1H-1,2,3-triazole-4-carboxylic acid]	41	116 (≈ 36.1 µg/mL)	72.7 (≈ 22.6 µg/mL)	21.6	1.34	1.44	113		
Cc1ccc(-c2ccc(Oc3[nH]nnc3C(=O)O)cc2)cc1 [Example I-151, 5-((4′-Methyl-[1,1′-biphenyl]-4-yl)oxy)-1H-1,2,3-triazole-4-carboxylic acid]	11	83.2 (≈ 24.6 µg/mL)	53 (≈ 15.6 µg/mL)	< 0.15	> 83.3	0.669			
O=C(O)c1nn[nH]c1Oc1ccc(S(F)(F)(F)(F)F)cc1 [Example I-049, 5-(4-Pentafluorosulfanylphenoxy)-1H-1,2,3-triazole-4-carboxylic acid]	50					3.65	107	0.006	
COc1ccc(-c2ccc(Oc3[nH]nnc3C(=O)O)cc2)cc1 [Example I-153, 5-((4′-Methoxy-[1,1′-biphenyl]-4-yl)oxy)-1H-1,2,3-triazole-4-carboxylic acid]	10					3.11	116	0.103	
O=C(O)c1nn[nH]c1OCc1ccc(Br)cc1 [Example I-085, 5-((4-Bromobenzyl)oxy)-1H-1,2,3-triazole-4-carboxylic acid]									> 10000
COc1ccc(Oc2[nH]nnc2C(=O)O)cc1 [Example I-035, 5-(4-Methoxyphenoxy)-1H-1,2,3-triazole-4-carboxylic acid]									260
CCOC(=O)c1nn[nH]c1Sc1ccc(OC)cc1 [Example I-005, Ethyl 5-((4-Methoxyphenyl)thio)-1H-1,2,3-triazole-4-carboxylate]									> 500000

Other lines, results leading:

IC50 [1] [nM]	solubility at 1 h [2] [µM]	solubility at 1 h [3] [µM]	CLint scaled at 1 μM [4] [mL/min/kg]	half-life at 1 μM [4] [h]	half-life at 2 μM [5] [h]	recovery at 5 h, 1 μM [6] [%]	fraction unbound at 5 h, 1 μM [6]	IC50 [1, 7] [nM]	SMILES
38	101 (≈ 23.4 µg/mL)	97.6 (≈ 22.6 µg/mL)	< 0.15	> 83.3	8.02	98.8	0.012		C=Cc1ccc(Oc2[nH]nnc2C(=O)O)cc1 [Example I-285, 5-(4-Vinylphenoxy)-1H-1,2,3-triazole-4-carboxylic acid]
84	103 (≈ 28.3 µg/mL)	96.6 (≈ 26.6 µg/mL)	65.3	0.443	4.61	101			CCC(CC)c1ccc(Oc2[nH]nnc2C(=O)O)cc1 [Example I-272, 5-(4-(Pentan-3-yl)phenoxy)-1H-1,2,3-triazole-4-carboxylic acid]
32	112 (≈ 29.1 µg/mL)	111 (≈ 28.7 µg/mL)	4.98	5.82	2.61	98.2			O=C(O)c1nn[nH]c1Oc1cccc(C2CCC2)c1 [Example I-279, 5-(3-Cyclobutylphenoxy)-1H-1,2,3-triazole-4-carboxylic acid]
								34	CCc1ccc(Oc2[nH]nnc2C(=O)O)cc1 [Example I-298, 5-(4-Ethylphenoxy)-1H-1,2,3-triazole-4-carboxylic acid]
								76	CC(C)Cc1cccc(Oc2[nH]nnc2C(=O)O)c1 [Example I-296, 5-(3-Isobutylphenoxy)-1H-1,2,3-triazole-4-carboxylic acid]
								27	O=C(O)c1nn[nH]c1Oc1cccc(-c2ccc(OC(F)(F)F)c(F)c2)c1 [Example I-311, 5-((3′-Fluoro-4′-(trifluoromethoxy)-[1,1′-biphenyl]-3-yl)oxy)-1H-1,2,3-triazole-4-carboxylic acid]
								222	O=C(O)c1nn[nH]c1Oc1cccc(N2CCCCCC2)c1 [Example I-280, 5-(3-(Azepan-1-yl)phenoxy)-1H-1,2,3-triazole-4-carboxylic acid]
								89	C=Cc1cccc(Oc2[nH]nnc2C(=O)O)c1 [Example I-284, 5-(3-Vinylphenoxy)-1H-1,2,3-triazole-4-carboxylic acid]
